According to patent US20230365592A1 (Agios Pharmaceuticals, Inc., priority 2022, published 2023):
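Note: after compound treatment, cells received sepiapterin plus isotope-labelled Phenylalanine for 4 hours, then labelled Tyrosine in the medium was quantified, 10-point 2-fold dilution series run in duplicate.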

These compounds were tested against T1, human PAH with the R408W mutation (Homo sapiens, UniProt P00439, R408W) (assay: Cell Based Phenylalanine Flux Assay). Conditions: A375 cells expressing human PAH R408W; 24 hrs compound incubation; 13C-Tyrosine by LC-MS; average where tested multiple times; read-out: AC50.
T1 construct: expressed in transfected cells
T1 sequence (P00439 1-452 R408W): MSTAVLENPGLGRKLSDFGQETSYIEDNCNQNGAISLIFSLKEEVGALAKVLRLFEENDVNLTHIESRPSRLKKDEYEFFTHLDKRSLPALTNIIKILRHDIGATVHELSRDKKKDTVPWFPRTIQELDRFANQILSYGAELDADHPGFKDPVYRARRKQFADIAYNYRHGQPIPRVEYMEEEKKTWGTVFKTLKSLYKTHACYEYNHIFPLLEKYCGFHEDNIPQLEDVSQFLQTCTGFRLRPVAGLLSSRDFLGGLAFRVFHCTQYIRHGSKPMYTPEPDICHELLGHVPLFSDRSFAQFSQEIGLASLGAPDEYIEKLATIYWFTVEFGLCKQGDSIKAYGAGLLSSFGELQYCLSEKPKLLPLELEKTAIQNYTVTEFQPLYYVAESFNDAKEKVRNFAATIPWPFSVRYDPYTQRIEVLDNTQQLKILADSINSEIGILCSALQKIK
An AC50 of 500 to 1000 nM was found for `Cc1cccn2nc([C@@H]3c4nc[nH]c4CCN3C(=O)c3cnc(-c4cnccn4)o3)cc12` [Example 2240, (S)-(4-(4-methylpyrazolo[1,5-a]pyridin-2-yl)-1,4,6,7-tetrahydro-5H-imidazo[4,5-c]pyridin-5-yl)(2-(pyrazin-2-yl)oxazol-5-yl)methanone] in this work. In the case of `Cc1cccn2nc([C@H]3c4nc[nH]c4CCN3C(=O)c3cnc(-c4cnccn4)o3)cc12` [Example 2241, (R)-(4-(4-methylpyrazolo[1,5-a]pyridin-2-yl)-1,4,6,7-tetrahydro-5H-imidazo[4,5-c]pyridin-5-yl)(2-(pyrazin-2-yl)oxazol-5-yl)methanone], the AC50 is reported as > 5000 nM. An AC50 of 500 to 1000 nM was found for `O=C(c1cnc(-c2cnccn2)o1)N1CCc2[nH]cnc2[C@H]1c1cc2c(C(F)(F)F)cccn2n1` [Example 2244, (S)-(2-(pyrazin-2-yl)oxazol-5-yl)(4-(4-(trifluoromethyl)pyrazolo[1,5-a]pyridin-2-yl)-1,4,6,7-tetrahydro-5H-imidazo[4,5-c]pyridin-5-yl)methanone] in this work. `O=C(c1cnc(-c2cnccn2)o1)N1CCc2[nH]cnc2[C@@H]1c1cc2c(C(F)(F)F)cccn2n1` [Example 2245, (R)-(2-(pyrazin-2-yl)oxazol-5-yl)(4-(4-(trifluoromethyl)pyrazolo[1,5-a]pyridin-2-yl)-1,4,6,7-tetrahydro-5H-imidazo[4,5-c]pyridin-5-yl)methanone] was tested, and the AC50 was > 5000 nM. `COc1cccn2nc([C@H]3c4nc[nH]c4CCN3c3ccc(C(F)(F)F)cn3)cc12` [Example 2246, (R)-4-(4-methoxypyrazolo[1,5-a]pyridin-2-yl)-5-(5-(trifluoromethyl)pyridin-2-yl)-4,5,6,7-tetrahydro-1H-imidazo[4,5-c]pyridine] was tested, and the AC50 was > 5000 nM. In the case of `COc1cccn2nc([C@@H]3c4nc[nH]c4CCN3c3ccc(C(F)(F)F)cn3)cc12` [Example 2247, (S)-4-(4-methoxypyrazolo[1,5-a]pyridin-2-yl)-5-(5-(trifluoromethyl)pyridin-2-yl)-4,5,6,7-tetrahydro-1H-imidazo[4,5-c]pyridine], the AC50 is reported as < 500 nM. For `Cc1nnc(N2CCc3[nH]cnc3[C@H]2c2cc3c(OC(F)(F)F)cccn3n2)o1` [Example 2249, (S)-2-methyl-5-(4-(4-(trifluoromethoxy)pyrazolo[1,5-a]pyridin-2-yl)-1,4,6,7-tetrahydro-5H-imidazo[4,5-c]pyridin-5-yl)-1,3,4-oxadiazole], the AC50 was < 500 nM. With `FC(F)(F)Oc1cccn2nc([C@@H]3c4nc[nH]c4CCN3c3nnc(C(F)(F)F)o3)cc12` [Example 2253, (S)-2-(4-(4-(trifluoromethoxy)pyrazolo[1,5-a]pyridin-2-yl)-1,4,6,7-tetrahydro-5H-imidazo[4,5-c]pyridin-5-yl)-5-(trifluoromethyl)-1,3,4-oxadiazole] the AC50 was < 500 nM. With `FC(F)Oc1cccn2nc([C@@H]3c4nc[nH]c4CCN3c3ncccn3)cc12` [Example 2254, (S)-4-(4-(difluoromethoxy)pyrazolo[1,5-a]pyridin-2-yl)-5-(pyrimidin-2-yl)-4,5,6,7-tetrahydro-1H-imidazo[4,5-c]pyridine] the AC50 was < 500 nM. An AC50 of 1000 to 5000 nM was found for `FC(F)Oc1cccn2nc([C@H]3c4nc[nH]c4CCN3c3ncccn3)cc12` [Example 2255, (R)-4-(4-(difluoromethoxy)pyrazolo[1,5-a]pyridin-2-yl)-5-(pyrimidin-2-yl)-4,5,6,7-tetrahydro-1H-imidazo[4,5-c]pyridine] in this work. In the case of `FC(F)Oc1cccn2nc([C@@H]3c4nc[nH]c4CCN3c3ncc(C(F)(F)F)cn3)cc12` [Example 2256, (S)-4-(4-(difluoromethoxy)pyrazolo[1,5-a]pyridin-2-yl)-5-(5-(trifluoromethyl)pyrimidin-2-yl)-4,5,6,7-tetrahydro-1H-imidazo[4,5-c]pyridine], the AC50 is reported as < 500 nM. `FC(F)Oc1cccn2nc([C@H]3c4nc[nH]c4CCN3c3ncc(C(F)(F)F)cn3)cc12` [Example 2257, (R)-4-(4-(difluoromethoxy)pyrazolo[1,5-a]pyridin-2-yl)-5-(5-(trifluoromethyl)pyrimidin-2-yl)-4,5,6,7-tetrahydro-1H-imidazo[4,5-c]pyridine] was tested, and the AC50 was > 5000 nM. An AC50 of 500 to 1000 nM was found for `CC1(c2nnc(N3CCc4[nH]cnc4[C@H]3c3cc4c(Cl)cccn4n3)o2)CC1` [Example 2259, (S)-2-(4-(4-chloropyrazolo[1,5-a]pyridin-2-yl)-1,4,6,7-tetrahydro-5H-imidazo[4,5-c]pyridin-5-yl)-5-(1-methylcyclopropyl)-1,3,4-oxadiazole] in this work. `CC(C)c1cccn2nc([C@H]3c4nc[nH]c4CCN3c3nnc(-c4cccnc4)o3)cc12` [Example 2260, (R)-2-(4-(4-isopropylpyrazolo[1,5-a]pyridin-2-yl)-1,4,6,7-tetrahydro-5H-imidazo[4,5-c]pyridin-5-yl)-5-(pyridin-3-yl)-1,3,4-oxadiazole] was tested, and the AC50 was > 5000 nM. With `Cc1cccnc1-c1nnc(N2CCc3[nH]cnc3[C@@H]2c2cc3ccccn3n2)o1` [Example 2266, (R)-2-(3-methylpyridin-2-yl)-5-(4-(pyrazolo[1,5-a]pyridin-2-yl)-1,4,6,7-tetrahydro-5H-imidazo[4,5-c]pyridin-5-yl)-1,3,4-oxadiazole] the AC50 was > 5000 nM. For `Cc1cccnc1-c1nnc(N2CCc3[nH]cnc3[C@H]2c2cc3ccccn3n2)o1` [Example 2267, (S)-2-(3-methylpyridin-2-yl)-5-(4-(pyrazolo[1,5-a]pyridin-2-yl)-1,4,6,7-tetrahydro-5H-imidazo[4,5-c]pyridin-5-yl)-1,3,4-oxadiazole], the AC50 was < 500 nM. In the case of `Cc1cccnc1-c1nnc(N2CCc3[nH]cnc3[C@@H]2c2cc3c(C)cccn3n2)o1` [Example 2268, (R)-2-(4-(4-methylpyrazolo[1,5-a]pyridin-2-yl)-1,4,6,7-tetrahydro-5H-imidazo[4,5-c]pyridin-5-yl)-5-(3-methylpyridin-2-yl)-1,3,4-oxadiazole], the AC50 is reported as > 5000 nM. For `Cc1cccnc1-c1nnc(N2CCc3[nH]cnc3[C@H]2c2cc3c(C)cccn3n2)o1` [Example 2269, (S)-2-(4-(4-methylpyrazolo[1,5-a]pyridin-2-yl)-1,4,6,7-tetrahydro-5H-imidazo[4,5-c]pyridin-5-yl)-5-(3-methylpyridin-2-yl)-1,3,4-oxadiazole], the AC50 was < 500 nM. For `FC(F)(F)Oc1cccn2nc([C@@H]3c4nc[nH]c4CCN3c3ncccn3)cc12` [Example 2270, (S)-5-(pyrimidin-2-yl)-4-(4-(trifluoromethoxy)pyrazolo[1,5-a]pyridin-2-yl)-4,5,6,7-tetrahydro-1H-imidazo[4,5-c]pyridine], the AC50 was < 500 nM. `FC(F)(F)Oc1cccn2nc([C@H]3c4nc[nH]c4CCN3c3ncccn3)cc12` [Example 2271, (R)-5-(pyrimidin-2-yl)-4-(4-(trifluoromethoxy)pyrazolo[1,5-a]pyridin-2-yl)-4,5,6,7-tetrahydro-1H-imidazo[4,5-c]pyridine] was tested, and the AC50 was > 5000 nM. For `FC(F)Oc1cccn2nc([C@H]3c4nc[nH]c4CCN3c3ccc(C(F)(F)F)cn3)cc12` [Example 2273, (R)-4-(4-(difluoromethoxy)pyrazolo[1,5-a]pyridin-2-yl)-5-(5-(trifluoromethyl)pyridin-2-yl)-4,5,6,7-tetrahydro-1H-imidazo[4,5-c]pyridine], the AC50 was > 5000 nM. An AC50 of 500 to 1000 nM was found for `Cc1cccc2cc([C@@H]3c4nc[nH]c4CCN3c3nnc(-c4cccnc4F)o3)nn12` [Example 2274, (S)-2-(2-fluoropyridin-3-yl)-5-(4-(7-methylpyrazolo[1,5-a]pyridin-2-yl)-1,4,6,7-tetrahydro-5H-imidazo[4,5-c]pyridin-5-yl)-1,3,4-oxadiazole] in this work.
